The source of these data is ChEMBL document CHEMBL5512666, “Selenization of Small Molecule Drugs: A New Player on the Board” (J Med Chem, 2024).

In assay [1] the test system is OVCAR-3. Kind of assay: Antiproliferative activity against human OVCAR-3 cells. In kind it is functional, cell-based.
The subject of assay [2] is HEK-293T. Kind of assay: Antiproliferative activity against HEK293T. Format: functional, cell-based. As to conditions: Homo sapiens.
Assay [3] concerns ES-2. Kind of assay: Antiproliferative activity against human ES2 cells. Format: functional, cell-based.
A short description of assay [4]: Antiproliferative activity against human HEY A8 cells. In kind it is functional, cell-based.
Assay [5] is described as follows: Antiproliferative activity against human OVCAR-10 cells. Format: functional, cell-based.
Assay [6] in a line: Inhibition of TrxR (unknown origin) expressed in MHCC97H cells incubated for 24 hrs by colorimetric assay. In kind it is cell-based, Homo sapiens.
In assay [7] the test system is MHCC97H. Kind of assay: Antiproliferative activity against human MHCC97H cells assessed as reduction in cell viability incubated for 48 hrs by MTT assay. Format: functional, cell-based.
In assay [8] the test system is Candida albicans. Kind of assay: Antifungal activity against azole-resistant Candida albicans clinical isolate 632 assessed as fungal growth inhibition incubated for 24 hrs by CLSI protocol based broth microdilution method. Format: functional. In general terms: Broth dilution looks for growth in wells or tubes with falling amounts of substance.
Assay [9] has as its system Candida albicans. Kind of assay: Antifungal activity against azole-resistant Candida albicans clinical isolate CaR assessed as fungal growth inhibition incubated for 24 hrs by CLSI protocol based broth microdilution method. In kind it is functional.
Assay [10] deals with Candida albicans. Nature of the assay: Antifungal activity against azole-resistant Candida albicans clinical isolate 904 assessed as fungal growth inhibition incubated for 24 hrs by CLSI protocol based broth microdilution method. In kind it is functional.
Assay [11] has as its system Candida tropicalis. Nature of the assay: Antifungal activity against Candida tropicalis CGMCC 2.3739. Format: functional.
For assay [12], the system named is Candida albicans. Kind of assay: Antifungal activity against azole-resistant Candida albicans clinical isolate 901 assessed as fungal growth inhibition incubated for 24 hrs by CLSI protocol based broth microdilution method. Format: functional.
The test system of assay [13] is Candida albicans. Nature of the assay: Antifungal activity against azole-resistant Candida albicans clinical isolate 17 assessed as fungal growth inhibition incubated for 24 hrs by CLSI protocol based broth microdilution method. Format: functional.
A short description of assay [14]: Antioxidant activity assessed as inhibition of peroxynitrite mediated L-tyrosine nitration in sodium phosphate buffer at pH 7.5 incubated for 7 mins by RP-HPLC analysis. Format: functional.
Assay [15] can be described thus: Antioxidant activity assessed as reduction in peroxynitrite mediated L-tyrosine nitration by measuring remaining activity relative to control. Format: functional. Also noted: concentration or dose not given beside the values.

Values after ≈ are worked out from the molar mass of the structure shown.

With `O=C1N[C@H]2[C@H](CS[C@H]2CCCCC(=O)[Se]Cc2ccccc2)N1`, the IC50 – broadly, the concentration needed to halve the response being measured – worked out at 36.9 µM in assay [1]; 6.57 µM in assay [2]; 16.2 µM in assay [3]; 17.3 µM in assay [4]; 47.2 µM in assay [5].

For the molecule `N#Cc1cccc(-c2ccc(=O)n(Cc3cccc(-c4ncc([Se]CCN5CCCC5)cn4)c3)n2)c1`, the results for the IC50 in [6] and in assay [7] were 0.8 µM and 0.063 µM, respectively.

On to `CC[Se]C(=O)CCCC[C@@H]1SC[C@@H]2NC(=O)N[C@@H]21`, for which the IC50 in assay [1] was 34.2 µM; in assay [2], 38.8 µM; in assay [3], 14.5 µM; in assay [4], 12.8 µM; in assay [5], 40.4 µM.

Consider `OC(Cn1cncn1)(Cn1cncn1)c1ccc(F)cc1F` [FLUCONAZOLE], for which the MIC (in general, the lowest concentration found to suppress growth) in [8] was over 128 µg/mL; in assay [9], over 128 µg/mL; in assay [10] it was over 128 µg/mL; in assay [11], 2 µg/mL (≈ 6.53 µM); in assay [12] it was over 128 µg/mL; in assay [13] it was over 128 µg/mL.

Take `Cn1ccn(C)c1=[Se]`: the concentration for half-maximal inhibition (IC50) in [14] worked out at 12.2 µM. In assay [15], the Activity came out at 66.5%.

Turning to `C=Cn1ccn(C)c1=[Se]`, in [15], the Activity amounted to 71%.

In the case of `C=C1N(C)C=CN1CCCCCn1ccn(C)c1=[Se]`, the Activity in assay [15] was determined as 45%.

As to `Cc1cc(=O)[nH]c(=S)[nH]1` [METHYLTHIOURACIL], the IC50 in assay [14] was found to be 66.7 µM.

As to `Cn1ccnc1S` [METHIMAZOLE], in assay [14], the IC50 stood at 23.9 µM. Besides, the Activity in [15] was determined as 32.5%.

`N#C[Se]CCCOC(=O)CCCC[C@@H]1SC[C@@H]2NC(=O)N[C@@H]21`: the IC50 was over 100 µM in assay [1]; over 100 µM in assay [2]; 91.6 µM in assay [3]; 22.3 µM in assay [4]; over 100 µM in assay [5].

Consider `N#Cc1cccc(-c2ccc(=O)n(Cc3cccc(-c4ncc([Se]CCCN5CCCCC5)cn4)c3)n2)c1`, for which the IC50 in assay [6] amounted to 0.654 µM; in assay [7], 0.038 µM.

Regarding `CN(C)CCC[Se]c1cnc(-c2cccc(Cn3nc(-c4cccc(C#N)c4)ccc3=O)c2)nc1`, the IC50 in [7] was determined as 0.01 µM.

`CN(C)CC[Se]c1cnc(-c2cccc(Cn3nc(-c4cccc(C#N)c4)ccc3=O)c2)nc1`: the IC50 came out at 0.421 µM in assay [6] and 0.027 µM in assay [7].

In the case of `Cn1cc[nH]c1=[Se]`, the IC50 in assay [14] is 49.1 µM. Further, the Activity in [15] was determined as 66%.

Turning to `C=C1N(C)C=CN1CCCn1ccn(C)c1=[Se]`, the Activity in [15] stood at 29%.

Consider `COc1cccc(Cn2ccn(Cc3cccc(OC)c3)c2=[Se])c1`, for which the IC50 in [14] amounted to 42.2 µM. Further, the Activity in assay [15] amounted to 82%.

In the case of `O=c1[nH]cc(F)c(=O)[nH]1` [FLUOROURACIL], the half-maximal inhibitory concentration (IC50) in assay [1] was determined as 18.9 µM; in assay [2], 56.2 µM; in assay [3], 25.9 µM; in assay [4], 48.4 µM; in [5], 26.4 µM.

Take `CN1C=CN(CCn2ccn(C)c2=[Se])C1`: the Activity in assay [15] came to 68.4%.

Take `COc1cccc(Cn2ccn(C)c2=[Se])c1`: the 50% inhibitory concentration (IC50) in [14] came out at 7.8 µM.

`O=C(O)CCCC[C@@H]1SC[C@@H]2NC(=O)N[C@@H]21` [BIOTIN]: the IC50 in assay [1], in assay [2], in assay [3], in [4] and in assay [5] was over 100 µM in each case.

Regarding `N#C[Se]CCOC(=O)CCCC[C@@H]1SC[C@@H]2NC(=O)N[C@@H]21`, the 50% inhibitory concentration (IC50) in [1] amounted to 11.8 µM; in assay [2], 77.2 µM; in assay [3], 9.85 µM; in assay [4], 14.1 µM; in assay [5] it was 18.6 µM.

`C=C1N(C)C=CN1CCCCn1ccn(C)c1=[Se]`: the Activity in assay [15] was determined as 56%.

Turning to `C[Se]C(=O)CCCC[C@@H]1SC[C@@H]2NC(=O)N[C@@H]21`, the IC50 turned out to be 22.3 µM in [1]; 31.5 µM in assay [2]; 9.84 µM in assay [3]; 20.2 µM in assay [4]; 24.9 µM in assay [5].

Regarding `CCCc1cc(=O)[nH]c(=S)[nH]1` [PROPYLTHIOURACIL], the IC50 in assay [14] came out at 95 µM.
